Assay results published in paper PMC7976604 (ACS Catalysis, 2021).

Target: T1, PA0254/HudA (PA0254^UbiX) (Pseudomonas aeruginosa, UniProt Q9I6N5)
T1 sequence (Q9I6N5 1-496): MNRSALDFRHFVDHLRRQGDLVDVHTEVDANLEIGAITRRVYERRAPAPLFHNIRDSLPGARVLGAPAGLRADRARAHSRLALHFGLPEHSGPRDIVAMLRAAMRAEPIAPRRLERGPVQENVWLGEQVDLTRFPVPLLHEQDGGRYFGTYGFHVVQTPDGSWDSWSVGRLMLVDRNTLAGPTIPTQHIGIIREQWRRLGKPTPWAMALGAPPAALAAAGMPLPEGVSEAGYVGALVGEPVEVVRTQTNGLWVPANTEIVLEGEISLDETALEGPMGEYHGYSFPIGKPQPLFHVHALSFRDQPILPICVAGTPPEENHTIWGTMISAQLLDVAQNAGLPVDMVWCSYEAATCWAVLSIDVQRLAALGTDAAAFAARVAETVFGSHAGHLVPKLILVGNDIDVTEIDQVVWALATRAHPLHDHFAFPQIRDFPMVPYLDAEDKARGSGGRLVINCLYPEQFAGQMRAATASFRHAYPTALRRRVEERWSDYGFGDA
Assay: inhibition of P2C decarboxylation, histidine-eluted enzyme
Type: biochemical
Conditions: read-out: % inhibition at 10 mM

Question: `c1c[nH]cn1` [imidazole] was tested. Which inhibition at 10000 µM did it give?
Answer: Its inhibition at 10000 µM is roughly 50%.
